Results taken from ChEMBL document CHEMBL3885881, “DrugMatrix”.

Species on record: Rattus norvegicus
Type: toxicity, organism-based, Sprague-Dawley
Conditions: in vivo, po, route oral GAVAGE, […]; for ABSOLUTE EOSINOPHIL / ABSOLUTE LYMPHOCYTE / ABSOLUTE MONOCYTE / ABSOLUTE SEGMENTED NEUTROPHIL / BASOPHIL / EOSINOPHIL / ERYTHROCYTE COUNT / HEMATOCRIT / HEMOGLOBIN / LEUKOCYTE COUNT / LYMPHOCYTE / MEAN CORPUSCULAR HEMOGLOBIN / MEAN CORPUSCULAR HEMOGLOBIN CONCENTRATION / MEAN CORPUSCULAR VOLUME / MONOCYTE / NEUTROPHIL / NUCLEATED RED BLOOD CELLS / PLATELET COUNT: tissue Blood; for ALANINE AMINOTRANSFERASE / ALBUMIN / ALKALINE PHOSPHATASE / ASPARTATE AMINOTRANSFERASE / BLOOD UREA NITROGEN / CARBON DIOXIDE / CHLORIDE / CHOLESTEROL / CREATINE PHOSPHOKINASE / CREATININE / GLUCOSE / LACTATE DEHYDROGENASE / LIPASE / PHOSPHORUS / POTASSIUM / SODIUM / TOTAL BILIRUBIN / TOTAL PROTEIN / URIC ACID: tissue Plasma
[1] = 0 mg/kg, 6 h, vehicle control, dose level Control, time 0.25 day
[2] = 0 mg/kg, 24 h, vehicle control, dose level Control, time 1 day
[3] = 30 mg/kg, 6 h, dose level Low, time 0.25 day

Description: DrugMatrix - Regimen: Single

S=C=Nc1cccc2ccccc12 [1-NAPHTHYLISOTHIOCYANATE]
ABSOLUTE EOSINOPHIL [1]: 61.17 CELLS/uL
ABSOLUTE LYMPHOCYTE [1]: 12625.83 CELLS/uL
ABSOLUTE MONOCYTE [1]: 417.17 CELLS/uL
ABSOLUTE SEGMENTED NEUTROPHIL [1]: 1595.83 CELLS/uL
BASOPHIL [1]: 0%
EOSINOPHIL [1]: 0.33%
ERYTHROCYTE COUNT [1]: 5.46 x10E6/uL
HEMATOCRIT [1]: 36.02%
HEMOGLOBIN [1]: 13.55 G/DL
LEUKOCYTE COUNT [1]: 14.7 x10E3/uL
LYMPHOCYTE [1]: 85.83%
MEAN CORPUSCULAR HEMOGLOBIN [1]: 24.87 pg
MEAN CORPUSCULAR HEMOGLOBIN CONCENTRATION [1]: 37.65 G/DL
MEAN CORPUSCULAR VOLUME [1]: 66.03 fL
MONOCYTE [1]: 2.67%
NEUTROPHIL [1]: 11.17%
NUCLEATED RED BLOOD CELLS [1]: 0 /100WBC
PLATELET COUNT [1]: 1072.33 x10E3/uL
ALANINE AMINOTRANSFERASE [1]: 63.33 u/L
ALBUMIN [1]: 4.58 G/DL
ALKALINE PHOSPHATASE [1]: 285 u/L
ASPARTATE AMINOTRANSFERASE [1]: 116.5 u/L
BLOOD UREA NITROGEN [1]: 9.17 mg/dL
CARBON DIOXIDE [1]: 18.83 mmol/L
CHLORIDE [1]: 104.5 MEQ/L
CHOLESTEROL [1]: 68.67 mg/dL
CREATINE PHOSPHOKINASE [1]: 421 u/L
CREATININE [1]: 0.58 mg/dL
GLUCOSE [1]: 160.67 mg/dL
LACTATE DEHYDROGENASE [1]: 396 u/L
LIPASE [1]: 10.33 u/L
PHOSPHORUS [1]: 12.25 mg/dL
POTASSIUM [1]: 6.42 MEQ/L
SODIUM [1]: 142.77 MEQ/L
TOTAL BILIRUBIN [1]: 0.25 mg/dL
TOTAL PROTEIN [1]: 5.48 G/DL
URIC ACID [1]: 1.65 mg/dL
ABSOLUTE EOSINOPHIL [2]: 23.83 CELLS/uL
ABSOLUTE LYMPHOCYTE [2]: 11026.5 CELLS/uL
ABSOLUTE MONOCYTE [2]: 98.5 CELLS/uL
ABSOLUTE SEGMENTED NEUTROPHIL [2]: 667.83 CELLS/uL
BASOPHIL [2]: 0%
EOSINOPHIL [2]: 0.17%
ERYTHROCYTE COUNT [2]: 4.92 x10E6/uL
HEMATOCRIT [2]: 31.9%
HEMOGLOBIN [2]: 12.6 G/DL
LEUKOCYTE COUNT [2]: 11.82 x10E3/uL
LYMPHOCYTE [2]: 93%
MEAN CORPUSCULAR HEMOGLOBIN [2]: 25.7 pg
MEAN CORPUSCULAR HEMOGLOBIN CONCENTRATION [2]: 39.57 G/DL
MEAN CORPUSCULAR VOLUME [2]: 64.97 fL
MONOCYTE [2]: 0.83%
NEUTROPHIL [2]: 6%
NUCLEATED RED BLOOD CELLS [2]: 0 /100WBC
PLATELET COUNT [2]: 872.33 x10E3/uL
ALANINE AMINOTRANSFERASE [2]: 82.67 u/L
ALBUMIN [2]: 4.17 G/DL
ALKALINE PHOSPHATASE [2]: 321.83 u/L
ASPARTATE AMINOTRANSFERASE [2]: 99.5 u/L
BLOOD UREA NITROGEN [2]: 13.33 mg/dL
CARBON DIOXIDE [2]: 33.67 mmol/L
CHLORIDE [2]: 99.83 MEQ/L
CHOLESTEROL [2]: 64 mg/dL
CREATINE PHOSPHOKINASE [2]: 275.33 u/L
CREATININE [2]: 0.21 mg/dL
GLUCOSE [2]: 146.17 mg/dL
LACTATE DEHYDROGENASE [2]: 101 u/L
LIPASE [2]: 9.83 u/L
PHOSPHORUS [2]: 8.82 mg/dL
POTASSIUM [2]: 5.51 MEQ/L
SODIUM [2]: 143.2 MEQ/L
TOTAL BILIRUBIN [2]: 0.18 mg/dL
TOTAL PROTEIN [2]: 5.83 G/DL
URIC ACID [2]: 0.63 mg/dL
ABSOLUTE EOSINOPHIL [3]: 14.83 CELLS/uL
ABSOLUTE LYMPHOCYTE [3]: 9035 CELLS/uL
ABSOLUTE MONOCYTE [3]: 384.17 CELLS/uL
ABSOLUTE SEGMENTED NEUTROPHIL [3]: 1199.33 CELLS/uL
BASOPHIL [3]: 0%
EOSINOPHIL [3]: 0.17%
ERYTHROCYTE COUNT [3]: 5.6 x10E6/uL
HEMATOCRIT [3]: 38.25%
HEMOGLOBIN [3]: 13.8 G/DL
LEUKOCYTE COUNT [3]: 10.63 x10E3/uL
LYMPHOCYTE [3]: 85.5%
MEAN CORPUSCULAR HEMOGLOBIN [3]: 24.68 pg
MEAN CORPUSCULAR HEMOGLOBIN CONCENTRATION [3]: 36.08 G/DL
MEAN CORPUSCULAR VOLUME [3]: 68.37 fL
MONOCYTE [3]: 3.67%
NEUTROPHIL [3]: 10.67%
NUCLEATED RED BLOOD CELLS [3]: 0 /100WBC
PLATELET COUNT [3]: 1129.33 x10E3/uL
ALANINE AMINOTRANSFERASE [3]: 63.33 u/L
ALBUMIN [3]: 4.7 G/DL
ALKALINE PHOSPHATASE [3]: 419.67 u/L
ASPARTATE AMINOTRANSFERASE [3]: 128.33 u/L
BLOOD UREA NITROGEN [3]: 10.5 mg/dL
CARBON DIOXIDE [3]: 14.83 mmol/L
CHLORIDE [3]: 104.17 MEQ/L
CHOLESTEROL [3]: 78.67 mg/dL
CREATINE PHOSPHOKINASE [3]: 651.17 u/L
CREATININE [3]: 0.27 mg/dL
GLUCOSE [3]: 216.83 mg/dL
LACTATE DEHYDROGENASE [3]: 402.17 u/L
LIPASE [3]: 11.67 u/L
PHOSPHORUS [3]: 17.25 mg/dL
POTASSIUM [3]: 7.07 MEQ/L
SODIUM [3]: 146.68 MEQ/L
TOTAL BILIRUBIN [3]: 0.23 mg/dL
TOTAL PROTEIN [3]: 6.17 G/DL
URIC ACID [3]: 3.28 mg/dL
